Data taken from patent US7071168B2, “Anti-cancer compounds and methods related thereto” (The Regents of the University of Colorado, priority 1998, dated 2006).

Columns and labels:
SCLC strain SHP-77 = assay: Colorimetric tetrazolium (MTT) assay for cell survival, SCLC strain SHP-77; type: cell-based, human
Protocol: (§1) In general, Anti-bradykinin activity was determined by the classical guinea pig ileum assay and on Chinese hamster ovary (CHO) cells expressing cloned human bradykinin B2 receptors. Anti-tumor activity was determined on cultured human cancer cell lines using the standard tetrazolium (MTT) assay.
Cell growth and survival were measured by a rapid colorimetric assay based on the tetrazolium salt MTT (3-(4,5-dimethylthiazol-2-yl)-2,5-diphenyl tetrazolium bromide) (Mosmann, J Immunol. Methods 65: 55–63, 1983, with minor modifications). Briefly, 1,000 normal lung fibroblasts or normal epithelial BEAS-2B cells, 1,000 or 5,000 viable non-SCLC cells or 10,000 viable SCLC cells were plated in 100 μL of growth medium in 96-well flat-bottomed microtiter plates. Cells were incubated overnight to allow recovery. Compounds to be tested were added to the cells in triplicate in a range of concentrations and the cells were incubated at 37° C., 5% CO2, with 100% humidity. Control cells were treated in the same way without antagonists. […] Plates were incubated for 4 days, allowing sufficient time for cell replication and compound-induced cell death to occur. On day 5, 25 μL of a 2 mg/mL solution of MTT (Sigma) dissolved in RMPI-1640was added to each well. The plate was incubated for 4 h at 37° C. The supernate was removed and the blue formazan complex was dissolved by adding 100 μL of 0.02 N HCl in 75% isopropanol to all wells. Absorbance was immediately determined using a scanning multiwell plate reader. B9870 caused 50% cell death at a concentration of 0.15 μM under these conditions.

[1] = system: bradykinin response of isolated guinea pig ileum; assay: Anti-bradykinin activity on isolated guinea pig ileum; conditions: isolated guinea pig ileum; pD2 of bradykinin is 7.4; higher numbers indicate higher potency
Protocol: as §1
Male Hartley guinea pigs that had been deprived of food overnight were sacrificed, and sections of terminal ileum, 25 mm in length, were dissected, attached to tissue holders and immersed in 10 ml tissue baths containing Krebs' solution bubbled with 95% O2/5% CO2. Tissues were placed under 1 g tension and incubated for 1 h equilibration. Concentration-effect curves were constructed to bradykinin in the absence and presence of new compounds.

| Compound | MTT: ED50 for killing of SCLC strain SHP-77 in vitro (SCLC strain SHP-77; Table 1, SHP-77, MTT, 4 days) | also measured |
| --- | --- | --- |
| O=C(NC1CN2CCC1CC2)C(NC(=NC1CCCCC1)NC1CCCCC1)C1Cc2ccccc2C1 (centres unmarked) [M12] |  | MTT: ED50 for killing of SCLC strain SHP-77 in vitro (SCLC strain SHP-77; SCLC strain SHP-77 in vitro): 20 µM; GPI: pA2 for bradykinin antagonist activity on isolated guinea pig ileum [1]: 5.0 |
| O=C(NC1CN2CCC1CC2)C(Cc1ccc2ccccc2c1)NC(=NC1CCCCC1)NC1CCCCC1 (centres unmarked) [M18] |  | MTT: ED50 for killing of SCLC strain SHP-77 in vitro (SCLC strain SHP-77; SCLC strain SHP-77 in vitro): 30 µM; GPI: pA2 for bradykinin antagonist activity on isolated guinea pig ileum [1]: 6.6 |
| CC1(C)CC(NC(=O)[C@@H](N)Cc2ccc3ccccc3c2)CC(C)(C)N1 [M218] |  | MTT: ED50 for killing of SCLC strain SHP-77 in vitro (SCLC strain SHP-77; SCLC strain SHP-77 in vitro): Inact; GPI: pA2 for bradykinin antagonist activity on isolated guinea pig ileum [1]: 4.8 |
| CC1(C)CC(NC(=O)[C@@H](NC(=NC2CCCCC2)NC2CCCCC2)C2Cc3ccccc3C2)CC(C)(C)N1 [M236] |  | MTT: ED50 for killing of SCLC strain SHP-77 in vitro (SCLC strain SHP-77; SCLC strain SHP-77 in vitro): >50 µM; GPI: pA2 for bradykinin antagonist activity on isolated guinea pig ileum [1]: 4.7 |
| CC1(C)CC(NC(=O)[C@H](Cc2c(F)c(F)c(F)c(F)c2F)NC(=NC2CCCCC2)NC2CCCCC2)CC(C)(C)N1 [M240] |  | MTT: ED50 for killing of SCLC strain SHP-77 in vitro (SCLC strain SHP-77; SCLC strain SHP-77 in vitro): 32 µM; GPI: pA2 for bradykinin antagonist activity on isolated guinea pig ileum [1]: 5.1 |
| COC(=O)C1(NC(=O)[C@H](Cc2ccc3ccccc3c2)NC(=NC2CCCCC2)NC2CCCCC2)CC(C)(C)NC(C)(C)C1 [M244A] |  | MTT: ED50 for killing of SCLC strain SHP-77 in vitro (SCLC strain SHP-77; SCLC strain SHP-77 in vitro): 12 µM; GPI: pA2 for bradykinin antagonist activity on isolated guinea pig ileum [1]: 5.0 |
| CC1(C)CC(NC(=O)[C@H](Cc2ccc3ccccc3c2)NC(=NC2CCCCC2)NC2CCCCC2)(C(=O)O)CC(C)(C)N1 [M244B] |  | MTT: ED50 for killing of SCLC strain SHP-77 in vitro (SCLC strain SHP-77; SCLC strain SHP-77 in vitro): Inact; GPI: pA2 for bradykinin antagonist activity on isolated guinea pig ileum [1]: 4.9 |
| CC1(C)CC(NC(=O)[C@@H](Cc2ccc3ccccc3c2)NC(=NC2CCCCC2)NC2CCCCC2)CC(C)(C)N1 [M246] |  | MTT: ED50 for killing of SCLC strain SHP-77 in vitro (SCLC strain SHP-77; SCLC strain SHP-77 in vitro): >50 µM; GPI: pA2 for bradykinin antagonist activity on isolated guinea pig ileum [1]: 5.7 |
| CC1(C)CC(NC(=O)[C@H](Cc2ccc3ccccc3c2)NC(=O)C=Cc2c(F)c(F)c(F)c(F)c2F)CC(C)(C)N1 [M248] |  | MTT: ED50 for killing of SCLC strain SHP-77 in vitro (SCLC strain SHP-77; SCLC strain SHP-77 in vitro): 3.2 µM; GPI: pA2 for bradykinin antagonist activity on isolated guinea pig ileum [1]: 6.2 |
| CC1(C)CC(NC(=O)[C@H](Cc2ccc3ccccc3c2)NC(=O)C2=CN3CCC2CC3)CC(C)(C)N1 [M252] |  | MTT: ED50 for killing of SCLC strain SHP-77 in vitro (SCLC strain SHP-77; SCLC strain SHP-77 in vitro): Inact; GPI: pA2 for bradykinin antagonist activity on isolated guinea pig ileum [1]: 4.8 |
| CC1(C)CC(NC(=O)[C@H](Cc2ccc3ccccc3c2)NC(=N)CCCCCCCCCCCCC(=N)N[C@@H](Cc2ccc3ccccc3c2)C(=O)NC2CC(C)(C)NC(C)(C)C2)CC(C)(C)N1 [M254-1] |  | MTT: ED50 for killing of SCLC strain SHP-77 in vitro (SCLC strain SHP-77; SCLC strain SHP-77 in vitro): 5 µM; GPI: pA2 for bradykinin antagonist activity on isolated guinea pig ileum [1]: 5.1 |
| CC1(C)CC(NC(=O)[C@H](Cc2ccc3ccccc3c2)NC(=N)CCCCCCCCCCCCC(=N)N[C@@H](Cc2ccc3ccccc3c2)C(=O)NC2CC(C)(C)NC(C)(C)C2)CC(C)(C)N1 [M254-2] |  | MTT: ED50 for killing of SCLC strain SHP-77 in vitro (SCLC strain SHP-77; SCLC strain SHP-77 in vitro): 5 µM; GPI: pA2 for bradykinin antagonist activity on isolated guinea pig ileum [1]: 5.8 |
| Aaa-DArg-Arg-Eac-Ser-D5F5-Oic-Arg [M954] | 10 µM |  |
| Aaa-Pac-hPhe-Arg [M752-6] | Inact |  |
| Aaa-Ser-Pac-hPhe-Arg [M752-5] | Inact |  |
| Ac-OC2Y-Arg [M784] | Inact |  |
| Aca-DArg-Arg-Aud-Ser-D5F5-Oic-Arg [M960] | 21 µM |  |
| Cin-hPhe-Arg [M706] | Inact |  |
| DArg-Arg-Aud-DIgl-PFF-Arg [M844] | 12 µM |  |
| DDD-(DArg-Arg-Aud-DIgl-hPhe-Arg)2 [M786] | 3.2 µM |  |
| DDD-(DArg-Arg-Aud-Pac-2Nal-DArg-NH2)2 [M710] | 1.7 µM |  |
| DDD-(DArg-Arg-Eac-Ser-DF5F-PFF-Arg)2 [M944] | 6.7 µM |  |
| DDD-(DArg-Arg-Eac-Ser-DIgl-PFF-Arg)2 [M932] | 6.0 µM |  |
| DDD-(DArg-PFF-Arg-NH2)2 [M818] | 60 µM |  |
| DDD-(DArg-hPhe-Arg-NH2)2 [M560] | 50 µM |  |

| Compound | MTT: ED50 for killing of SCLC strain SHP-77 in vitro (SCLC strain SHP-77; Table 1, SHP-77, MTT, 4 days) | also measured |
| --- | --- | --- |
| DDD-(Eac-Arg-Digl-Oic-Arg)2 [B10198-2] | 15 µM |  |
| Dca-hPhe-Arg [M542] | 80 µM |  |
| Dcg-Digl-Oic-Arg [B9490] | >60 µM |  |
| Dcg-hPhe-Arg [M558] | 100 µM |  |
| Dmac-DArg-Arg-Aud-Ser-D5F5-Oic-Arg [M968] | 15 µM |  |
| F5bz-DArg-Arg-Aud-Ser-D5F5-Oic-Arg [M958] | 18 µM |  |
| F5bz-F5F-Arg [M132] | 60 µM |  |
| F5c-DArg-Arg-Aud-Pac-2Nal-Arg [M698] | 7.1 µM |  |
| F5c-DArg-hPhe-Arg [M612] | Inact |  |
| F5c-PCF-Arg [M714] | Inact |  |
| F5c-PFF-Arg-NH2 [M812] | 15 µM |  |
| F5c-p-APa-Arg [M216] | >180 µM |  |
| Pac-hPhe-Arg [M752-2] | Inact |  |
| Ppa-PFF-Arg [M814] | Inact |  |
| Pya-hPhe-Arg [M540] | >100 µM |  |
| c[Arg-DNMF-DTrp-Phe-DTrp-Leu] [B10306] |  | MTT: ED50 for killing of SCLC strain SHP-77 in vitro (SCLC strain SHP-77; Table 3, cyclic peptides): Inact |
| c[DArg-Arg Add-DIgl-PFF-Arg] [M878] |  | MTT: ED50 for killing of SCLC strain SHP-77 in vitro (SCLC strain SHP-77; Table 3, cyclic peptides): 7 µM |
| c[DArg-Arg-Eac-DF5F-Oic-Arg] [M906] |  | MTT: ED50 for killing of SCLC strain SHP-77 in vitro (SCLC strain SHP-77; Table 3, cyclic peptides): 45 µM |
| c[DArg-Arg-Eac-DIgl-PFF-Arg] [M896] |  | MTT: ED50 for killing of SCLC strain SHP-77 in vitro (SCLC strain SHP-77; Table 3, cyclic peptides): 65 µM |
| c[Suc-DArg-Arg-Eac-Ser-DIgl-PaF]-Arg [M924] |  | MTT: ED50 for killing of SCLC strain SHP-77 in vitro (SCLC strain SHP-77; Table 3, cyclic peptides): 37 µM |
| α-DDD-(ApC-F5F-Arg)2 [M930] | Inact |  |
| α-DDD-(K-DArg-Arg-Eac-Ser-DF5F-Oic-Arg)2 [M950] | 6.7 µM |  |
| α-DDD-(c[Lys-DArg-Arg-Pro-Hyp-Gly-Thi-Ser-DF5F-Oic-Arg])2 [B10312] |  | MTT: ED50 for killing of SCLC strain SHP-77 in vitro (SCLC strain SHP-77; Table 3, cyclic peptides): 3.8 µM |
| α-Lys-DArg-Arg-Pro-Hyp-Gly-Igl-Ser-DIgl-Oic-Arg Sub-Arg-DNMF-DTrp-Phe-DTrp-Leu [B9950] | 8 µM |  |
| ζ-SUB-(ApC-F5F-Arg)2 [M926] | Inact |  |
